Laboratory results taken from patent US9464255B2, “Maleinized ester derivatives” (Elevance Renewable Sciences, Inc., priority 2013, dated 2016).
Each block holds one compound with its values, some of them ahead of it.

Assays:
[1] = Kinematic viscosity (KV); format: physicochemical
Experimental: The maleinated ester derivatives may be biodegradable and may be used as functional base oils. The functional base oil may have a kinetic viscosity (ASTM D-445) in the range from about 2 to about 1000 cSt at 100° C., or from about 2 to about 500, or from about 2 to about 100, or from about 4 to about 10 cSt. The base oil may have a viscosity up to about 35 cSt at 100° C., or in the range from about 3 to about 35 cSt, or in the range from about 5 to about 35 cSt at 100° C.

[2] = Viscosity index (ASTM D2270); format: physicochemical
From the text: The functional base oil may have a viscosity index (ASTM D2270) in the range from about 120 to about 250, or from about 130 to about 170.

[3] = tested on: activated sludge (microbial inoculum); assay: Aerobic biodegradability in water containing mineral salts and activated sludge (CO2 evolution, DOC); conditions: toxicity control >25% ThCO2 by day 6
Experimental: A maleinized ester derivative in the form of hydrogenated 1-pentyl triester of maleinated-9-dodecene methyl ester (hereinafter the “test substance”) is evaluated for aerobic biodegradability in water containing mineral salts and activated sludge. The activated sludge is taken from a wastewater treatment plant and is used as a source of microbial inoculum. The objectives of the study are: 1) to evaluate the biodegradability (mineralization to CO2 production) potential of the test substance in an aerobic, aqueous medium; and 2) to determine the mineralization potential of a reference chemical in order to assess the viability of the test inoculum.
Approximately one liter of activated sludge is used as the microbial inoculum. The sludge is collected from the Columbia Wastewater Plant in Columbia, Miss. This plant treats predominately domestic sewage.
An aqueous mineral salts medium provides essential mineral nutrients and trace elements necessary to sustain the inoculum throughout the test period. The mineral salts medium is prepared by addition of reagent grade salts to reagent water. […]
The CO2-free air is introduced into each flask by positive pressure, and the flow rates (50-100 mL/minute) are measured and adjusted using flow meters. […] Temperature of the chamber is continuously measured using a Rees Scientific temperature monitoring system. […]

[4] = tested on: microbial populations in the inoculum (activated sludge); assay: Bacterial plate counts of reaction flask solutions at Day 28; format: cell-based; conditions: study termination
Experimental: Bacterial plate counts are performed on the prepared activated sludge prior to initiation and each replicate reaction flask solution at Day 28. A dilution series of each sample is prepared in sterile, pH 7.2, phosphate-buffered water at 10^−2, 10^−3, 10^−4, 10^−5, and 10^−6. Duplicate 1-mL aliquots of each dilution are directly analyzed by plate counting methods patterned after methods described in Standard Methods for the Examination of Water and Wastewater. (See, American Public Health Association (APHA), American Water Works Association (AWWA), and Water Environment Federation (WEF). 1998. Standard Methods for the Examination of Water and Wastewater, 20th Edition, Part 9215 B, Pour Plate Method). The bacterial growth medium is Plate Count Agar (Difco Laboratories). The plates of inocula are incubated at 26±2° C. for five to six days before counting the number of colonies on plates with fewer than 300 colonies. The number of colonies at the dilution coming closest to 300 colonies is used to calculate colony forming units (CFU)/mL for each sample.

[5] = Solubility in water (observation in the biodegradation test); format: physicochemical
From the text: At study initiation, DOC concentration in the test substance replicates is not detected. […] The increase in DOC concentration from Day 0 to Day 28 is likely due to the insolubility of the test substance in water (that is, more test substance likely went into solution while stirring over time). Consequently, DOC removal cannot be calculated for the test substance.

- KV (40° C.) ([1]; 40° C.): 24.73 cSt
- KV (100° C.) ([1]; 100° C.): 5.0 cSt
- viscosity index (VI) [2]: 128
- Viscosity Index ([2]; Table 1, ASTM D2270): 128
Compound: CCCCCOC(=O)CCCCCC/C=C/C(CC)C(CC(=O)OCCCCC)C(=O)OCCCCC (centres unmarked) [Example 1, Tri-pentanol ester of the maleinized methyl 9-dodecenoate]

Compound: hydrogenated 1-pentyl triester of maleinated-9-dodecene methyl ester [test substance]
- inhibition of the inoculum (toxicity control) [3]: not be inhibitory
- inhibition of the inoculum (toxicity control) ([3]; listed as triester): not inhibitory
- effect on the population of microbes [4]: no significant effect on the population of microbes
- bacterial plate count ([4]; replicate A): 2.4×10^4 CFU/mL
- bacterial plate count ([4]; replicate B): 3.7×10^4 CFU/mL
- solubility in water [5]: insoluble in water

Compound: O=C([O-])c1ccccc1.[Na+] [reference substance, sodium benzoate, reference compound]
- bacterial plate count ([4]; single system): 1.4×10^4 CFU/mL
